According to US8404665B2, “In vivo use of glutathione S-transferase activated nitric oxide donors” (University of Utah Research Foundation, priority 2002, dated 2013):
Read-outs that look alike come from different tables or passages of the source.

Experiments:
HL-60 cells [1] = experiment: Subcutaneous HL-60 tumor implants in NOD/SCID mice; assay type: in vivo
Procedure: To study the in vivo antineoplastic potency of JS-K, NOD/SCID mice were injected in the flanks subcutaneously with HL-60 or PPC-1 cells (2.5×10^6 cells per flank). When subcutaneous tumors were palpable, treatment with JS-K or an equal volume of vehicle (20% dimethyl sulfoxide in PBS) was started using the indicated doses and route. Tumor size was measured daily or every other day using a Vernier caliper. Tumor volume was calculated using the formula: width×length×[(width+length)/2]×0.5236. Fifteen to 20 days after tumor cell implantation, animals were sacrificed by CO2 inhalation and tumors were collected for histochemical analysis.
Histological Analysis of Tumors. After sacrifice, subcutaneous tumors were dissected out, fixed in 10% formaldehyde and imbedded in paraffin. Four-um sections were cut and stained with Hematoxylin and Eosin.
To determine the in vivo therapeutic efficacy of JS-K, NOD/SCID mice were injected subcutaneously with 5×10^6 HL-60 cells in the flanks. When tumors were measurable (4 to 5 days after leukemia cell inoculation), the mice were divided into 2 groups that received either vehicle or JS-K at a dose of 4 μmol/kg administered intravenously 3 times per week. After seventeen days from the leukemia cell inoculation there appeared to be a significant difference in tumor volume between vehicle and JS-K treated animals: tumor volume was 9.51±1.22 and 4.15±1.06 cm^3 in vehicle and JS-K treated animals, respectively.

[2] = Reactivity of JS-K with GSH (HPLC-MS, pseudo-first order kinetics); assay type: physicochemical; conditions: 37° C.
Procedure: Chromatography and Mass Spectrometry. High Performance Liquid Chromatography (HPLC) separations were carried out with a Phenomenex Luna 5 u C18(2) column (Torrance, Calif.) using a gradient of acetonitrile:water (each containing 0.1% formic acid) at a flow rate of 1 ml/min (% acetonitrile: 25% for 0-5 min followed by a linear program to 70% at 15 min).
HPLC-Mass Spectrometry (MS) studies were performed on an Agilent Capillary Series 1100 LC/MSD Ion Trap mass spectrometer with electrospray ionization in the positive ion mode (CITY, STATE). Separations were effected as above, except that the flow rate was 15 ul/min and the gradient was 10% acetonitrile for 0-5 min followed by a linear program to 70% at 15 min.
The diazeniumdiolate ion appears to resemble chloride as a leaving group in SNAr reactions (Saavedra, J. E. et al. (2001) J. Org. Chem. 66: 3090-3098). Since 1-chloro-2,4-dinitrobenzene is believed to react with GSH, it was anticipated that JS-K would be similarly converted to DNP-SG. This was indicated by HPLC-MS where there appeared to be an 85% conversion of JS-K to DNP-SG within a 30-min incubation period at 37° C. in pH 7.4 phosphate buffer. Similar results appeared in a RPMI-1640 cell culture medium. Pseudo-first order kinetic plots for the reaction of GSH with JS-K in 0.1 M phosphate buffer (pH 7.4) were obtained with GSH (1-5 mM) in large excess of the substrate. Excellent first-order behavior was observed over several half-lives, and measured first-order rate constants appeared to show a linear dependence on [GSH]. The slope and y-intercept of the line yielded values for the second-order [k2=(1.02±0.04) M^−1 s^−1] and first order [k1=(4±12)×10^−5 s^−1] rate constants for the reactions of JS-K with GSH and water, respectively, at 37° C. in 0.1 M phosphate buffer, pH 7.4. The ultraviolet spectral changes accompanying the reaction in a second cell culture medium (Dulbecco's Modified Eagle's Medium) appeared to confirm the above stated kinetic rate constants.

U937 cells = experiment: U937 leukemia cell growth; assay type: cell-based, human
Procedure: Cell Lines and Culture Conditions. HL-60, DLD1, and U937 cells were obtained from ATCC (Rockville, Md.). Meth A cells were from Dr. Wolfram Samlowski (University of Utah, Salt Lake City, Utah). The PPC-1 cell line was provided by Dr. Graeme Bolger (University of Alabama, Birmingham, Ala.). For the cell growth and apoptosis experiments, cells were cultured at a density of 150,000 cells/ml in RPMI-1640 with 10% fetal bovine serum at 37° C. in a 5% CO2 humidified atmosphere. Agents were added at the indicated concentrations 24 h after culture initiation. […]
Cell Growth, Differentiation and Apoptosis Assays. The number of viable cells was determined using the MTT assay according to the manufacturer's protocol (Promega, Madison, Wis.) or using a Coulter counter. […] The assay is useful in calorimetric quantitation of cell viability and proliferation. In contrast, cell differentiation was evaluated using Wright and Non-Specific Esterase (NSE) staining of cells collected on microscope slides by cytospin as previously described (Magrinat, G. et al. (1992) Blood 80: 1880-1884). […]
The antiproliferative effects in the human AML (Acute Myeloid Leukemia) cell lines, HL-60 (myeloid leukemia) and U937 (monoblastic leukemia) cells were treated with JS-K for a period of 3 days, upon which cell growth was evaluated using a Coulter counter (CITY, STATE). […]

[3] = test system: bacterial, viral, fungal or parasitic infection; experiment: Treatment of bacterial, viral, fungal or parasitic infection in an individual; assay type: in vivo; conditions: therapeutically effective amount
Procedure: An individual with a bacterial, viral, fungal or parasitic infection is administered a therapeutically effective amount of JS-K to treat such infection.

HL-60 cells [4] = experiment: Apoptosis in HL-60 cells by DNA laddering; assay type: cell-based, human; conditions: 1 μM, twenty-four hours post-addition
Procedure: Cell Growth, Differentiation and Apoptosis Assays. The number of viable cells was determined using the MTT assay according to the manufacturer's protocol (Promega, Madison, Wis.) or using a Coulter counter. Briefly, a MTT assay is an analytical technique that uses the dye dimethylthiazolyl-diphenyltetrazolium (MTT) which turns from yellow to brownish-purple as it is reduced in the mitochondria of living cells. The assay is useful in calorimetric quantitation of cell viability and proliferation. In contrast, cell differentiation was evaluated using Wright and Non-Specific Esterase (NSE) staining of cells collected on microscope slides by cytospin as previously described (Magrinat, G. et al. (1992) Blood 80: 1880-1884). Apoptosis was assayed by flow cytometry and by determining DNA fragmentation using agarose gel electrophoresis as previously described (Shami, P. J. et al. (1998) Leukemia 12: 1461-1466). For the flow cytometry assay, we used the propidium iodide staining method of Nicoletti et al. (Nicoletti, I. et al. (1991) J. Immunol. Methods 139: 271-279).
Twenty-four hours post-addition, apoptosis induction was assayed by DNA laddering.

[5] = 4 μmol/kg i.v. 3 times per week

CCOC(=O)N1CCN(/[N+]([O-])=N/Oc2ccc([N+](=O)[O-])cc2[N+](=O)[O-])CC1 [JS-K, O^2-(2,4-dinitrophenyl) 1-[(4-ethoxycarbonyl)piperazin-1-yl]diazen-1-ium-1,2-diolate]
leukemia implant growth in vivo (HL-60 cells [1]; [5]): significant delay in leukemia implant growth in vivo | tumor histology (necrosis) at experiment termination (HL-60 cells [1]; [5]): extensive necrosis | tumor volume (HL-60 cells [1]; 4 μmol/kg i.v. 3 times per week, seventeen days from inoculation, vehicle 9.51±1.22): 4.15±1.06 cm^3 | cell necrosis in tumors (histologic analysis) (HL-60 cells [1]; controls ˜10%): more than 50% | reduction in tumor volume (HL-60 cells [1]; sixteen days after starting therapy, versus control): more than 50% | average tumor volume (HL-60 cells [1]; sixteen days after starting therapy, control 8.34±0.72, P=0.039): 3.13±1.14 cm^3 | first order rate constant k1, reaction with water (y-intercept) ([2]; 0.1 M phosphate buffer, pH 7.4): (4±12)×10^−5 s^−1 | second-order rate constant k2, reaction with GSH ([2]; 0.1 M phosphate buffer, pH 7.4): 1.02 ± 0.04 M⁻¹ s⁻¹ | conversion of JS-K to DNP-SG ([2]; within 30-min incubation, pH 7.4 phosphate buffer): 85% | IC50 (U937 cells; U937 (monocytic leukemia) cells, read-out: IC50, growth): 300 nM | IC50 (U937 cells; U937, 3 days, Coulter counter, read-out: IC50, cell growth): 330 nM | effect on infection [3]: causes elimination of such infection | apoptosis induction by DNA laddering (HL-60 cells [4]): potent inducer of apoptosis in leukemia cells
